In brackets after ≈: the same amount, converted by molar mass. Entries after “also recorded” stand apart in the source; their conditions may differ. Read-outs that look alike come from different tables or passages of the source. Peptide text beside a SMILES is read from it. * marks the point of attachment. Cbz = O=C(OCc1ccccc1)*
Legend:
pirin [1] = biological target: T1, pirin (Homo sapiens, UniProt O00625); test: Intracellular competition: rescue of PDP 16 pirin depletion by pirin ligands in SK-OV-3 cells; type: cell-based; design: endogenous in cells; host or cells: SK-OV-3
T1 sequence (O00625 1-290): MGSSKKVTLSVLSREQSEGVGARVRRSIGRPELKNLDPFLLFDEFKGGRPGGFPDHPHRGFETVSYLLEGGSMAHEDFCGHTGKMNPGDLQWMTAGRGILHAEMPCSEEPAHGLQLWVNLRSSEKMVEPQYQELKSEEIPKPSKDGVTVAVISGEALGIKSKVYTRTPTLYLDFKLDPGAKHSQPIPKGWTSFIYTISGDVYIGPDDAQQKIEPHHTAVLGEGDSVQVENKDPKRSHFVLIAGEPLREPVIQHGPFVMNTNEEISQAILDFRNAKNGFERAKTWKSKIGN
Protocol: (§1) in vivo in athymic mice to increase its tumorigenicity and reliability as a xenograft, and used within 10 passages of banked stocks.
(§2) Prior to use, the cells were analyzed by short tandem repeat (STR) profiling. Polymorphic STR loci were amplified using a polymerase chain reaction (PCR) primer set. The PCR product (each locus being labelled with a different fluorophore) was analyzed simultaneously with size standards using automated fluorescent detection. The number of repeats at 10 different loci (as recommended by the American Type Culture Collection, ATCC) was used to define the STR profile and this was cross-referenced with online databases to confirm authenticity. […]
(§3) the ATCC reference line (LGC Promochem, UK). […]
(§4) nested PCR protocol (Venor GeM kit, Minerva Biolabs, Germany). Cells were grown in DMEM/10 % FCS, 2 mM glutamine and nonessential amino acids in 5 % CO2.
(§5) SK-OV-3 cells were treated as for each experimental condition. Cells were harvested and lysed by scraping in urea lysis buffer (20 mM HEPES pH 8.0, 9 M urea, 1 mM sodium orthovanadate, 2.5 mM sodium pyrophosphate, 1 mM β-glycerophosphate). […]
(§6) of samples was determined using a bicinchoninic acid (BCA) protein assay kit (Thermo Fisher Scientific). Western blotting was carried out as previously described.10 Pirin and GAPDH antibodies were obtained from Abcam (ab157212) and Merck […]
(§7) Samples were treated, harvested and lysed as described above. A total of 5 μL of 0.2 mg/mL protein was loaded into plates and capillary western analysis was carried out according to the manufacturer’s instructions (ProteinSimple WES). The data was analyzed with the Compass software (ProteinSimple).
(§8) Sigma-Aldrich and Cell Signaling Technology, respectively.
(§9) 10 Sharp SY, Boxall K, Rowlands M, Prodromou C, Roe SM, Maloney A, Powers M, Clarke PA, Box G, Sanderson S, Patterson L, Matthews TP, Cheung KM, Ball K, Hayes A, Raynaud F, Marais R, Pearl L, Eccles S, Aherne W, McDonald E, Workman P. In vitro biological characterization of a novel, synthetic diaryl pyrazole resorcinol class of heat shock protein 90 inhibitors.

pirin [2] = biological target: T1, pirin; test: Pirin SPR (surface plasmon resonance) binding; conditions: for Measured Rmax/Theoretical Rmax: SPR
[3] = PDP aqueous stability protocol; conditions: for half-life at 100 µM: phosphate buffer (PBS)
[4] = LogD7.4 determination by RP-HPLC; conditions: pH 7.4
[5] = biological target: T2, pirin protein in SK-OV-3 human ovarian cancer cells (Homo sapiens, UniProt O00625); test: Pirin depletion in SK-OV-3 cells (immunoblot / capillary electrophoresis immunoassay); type: cell-based
T2 construct: endogenous in cells; host or cells: SK-OV-3
T2 sequence (O00625 1-290): T1 sequence (O00625 1-290)
Protocol: as §1, §2, §3, §4, §5, §6, §7, §8, §9

[6] = Kinetic solubility determination by RP-HPLC; conditions: PBS, pH 7.4, aqueous buffer, kinetic from dmso stock
CRBN-DDB1 complex = biological target: T3, CRBN-DDB1 complex (Homo sapiens, UniProt Q96SW2); test: CRBN/DDB1 fluorescence polarization competition assay; type: binding; conditions: for Ki: calculated from geometric mean CRBN-DDB1 IC50 and FP-probe KD
T3 construct: His6-ZZ-HRV3C (N); made in house; host or cells: Sf9 insect cells (baculovirus co-infection)
Protocol: CRBN/DDB1 Fluorescence Polarization Assay […]
Unless otherwise stated, the aqueous assay buffer contained 0.02 M HEPES((4-(2-hydroxyethyl)-1-piperazineethanesulfonic acid)) pH 8.0, 0.15 M NaCl, 0.5 mM TCEP ((tris(2-carboxyethyl)phosphine)), 0.05% Tween 20. The assay was conducted using 384 well black plates (ProxiPlate F Plus, Perkin-Elmer, Massachusetts, USA).
Plate Reader. […] Fluorescence […]
polarization was measured in units of millipolarization (mP) and are background corrected. Data were plotted and analyzed using […]
All experiments were performed in triplicate unless otherwise stated. Values are quoted as the geometric […]
Each graph is a representative example of a single biological repeat unless otherwise stated.
CRBN/DDB1 Protein Expression & Purification
Protein expression and purification methods adapted from Lopez-Girona et al.5 Full length human CRBN (accession number NM016302) was amplified by PCR & inserted downstream of the polyhedrin promoter of a pFBDM expression vector which had been modified to introduce a N-terminal His6-ZZ-HRV3C tag. Full length human DDB1 (accession number NM001923) was amplified by PCR with primers which introduced a C-terminal StrepTag and inserted downstream of the p10 promoter of a separate pFBDM expression vector. Baculoviruses were generated according to Bac-to-Bac protocols (Invitrogen) and used to co-infect Sf9 cells grown @ 27 °C in shaker flasks using Insect-XPRESS media (Lonza). Cells were harvested 48 hours post infection and frozen. For purification, pellets were thawed & resuspended in 5 volumes of Histrap buffer A (see below) and lysed […]
Superdex 200 (HiLoad 26/600), ResourceQ (6 mL) and finally a second Superdex 200 (HiLoad 26/600) column. All columns were from GE Healthcare and all purification steps were performed @ 4 °C. HisTrap buffer A: 50mM Tris (2-Amino-2-(hydroxymethyl)propane-1,3-diol), 500mM NaCl, 0.5mM TCEP ((tris(2-carboxyethyl)phosphine), 5% glycerol, pH 8.0. HisTrap Buffer B: + 250 mM imidazole. Superdex 200 buffer: 50mM Tris, 200mM NaCl, 0.5mM TCEP, 5% glycerol, pH 8.0. Resource Q buffer A: 50mM Tris, 0.5mM TCEP, 5% Glycerol, pH8.0. Resource Q buffer B + 1M NaCl.
California, USA) to prepare CRBN/DDB1 concentrations from 0.1 to 500 nM in 10 µL final assay volume containing 5 nM FP- […]
point prior to analysis. The KD was calculated using non-linear regression and a one-site specific binding model.
Analysis of competition assay FP-probe bound fraction […]
fb=probe bound fraction, KD=probe dissociation constant, L0=probe concentration, R0=protein concentration, Ki=ligand […]
CRBN/DDB1 Competition Assay
Compounds as solutions in DMSO were dispensed using an ECHO 550 Liquid Handler (Labcyte Inc).
Tracer controls (5 nM FP-probe S18 assay buffer only) and bound tracer controls (5 nM and 80 nM CRBN/DDB1) were included on each assay plate . Plates were incubated overnight at 4 °C before warming to room temperature and fluorescence polarization measured using an EnVision plate reader (Perkin -Elmer, Massachusetts, USA). IC 50 values […]
Table S2. CRBN/DDB1 Control Compounds

proteasome = test: Rescue of PDP 16 pirin depletion by proteasome inhibitor in SK-OV-3 cells; type: cell-based, human; conditions: 500 nM, 4 h pretreatment, then PDP 16 24 h
Protocol: as §1, §2, §3, §4, §5
of samples was determined using a bicinchoninic acid (BCA) protein assay kit (Thermo Fisher Scientific). […]
Samples were treated, harvested and lysed as described above. […] The data was analyzed with the Compass software (ProteinSimple). […]

[7] = 4 h pretreatment, then PDP 16 for 2 h, SK-OV-3, Figure 4
[8] = Pirin SPR KD, representative single repeat, best-fit value, one site specific binding
[9] = Pirin SPR pKD, mean of 3 values (unrounded), column statistics
[10] = Pirin SPR pKD±SEM, n = 3 independent biological repeats
[11] = Pirin SPR KD, equilibrium analysis, one site specific binding model, geometric mean n = 3
[12] = CRBN/DDB1 FP IC50, single repeat N=2, best-fit value, variable slope four parameters
[13] = best-fit value, variable slope four parameters, read-out: CRBN/DDB1 FP IC50, single repeat N=1
[14] = best-fit value, variable slope four parameters, read-out: CRBN/DDB1 FP IC50, single repeat N=3
[15] = displacement of thalidomide derived fluorescent probe, geometric mean n = 3, read-out: CRBN/DDB1 FP IC50

Row | Kd (pirin [2]; [10]) [nM] | SMILES | Kd (pirin [2]; [8]) [nM] | Kd (pirin [2]; [9]) [nM] | Measured Rmax/Theoretical Rmax (pirin [2]) | chromatographic logD [4] | solubility kinetic at 120 min [6] [µM] | Kd (pirin [2]; [11]) [nM] | IC50 (CRBN-DDB1 complex; [12]) [nM] | IC50 (CRBN-DDB1 complex; [13]) [nM] | IC50 (CRBN-DDB1 complex; [14]) [nM] | Ki (CRBN-DDB1 complex) [nM] | IC50 (CRBN-DDB1 complex; [15]) [nM] | other results
1 | 20.9 | CCN1CCN(Cc2ccc3cc(C(=O)Nc4cc(NC(=O)c5ccc6c(c5)OCCO6)ccc4Cl)ccc3n2)CC1 [chlorobisamide 22, N-(2-Chloro-5-(2,3-dihydrobenzo[b][1,4]dioxine-6-carboxamido)phenyl)-2-((4-ethylpiperazin-1-yl)methyl)quinoline-6-carboxamide] | 19.9 | 20.8 | 0.29 | – | – | – | – | – | – | – | – | Concentration giving complete rescue of pirin expression (pirin [1]; [7]): 1 µM; Rescue of pirin expression following treatment with PDP 16 (pirin [1]; [7]): concentration-dependent rescue of pirin expression; Competition of PDP 16 at 6 h exposure (pirin [1]; concentration > 1 μM, data not shown): unsuccessful
2 | – | Cc1ccc(NC(=O)c2ccc3c(c2)OCCO3)cc1NC(=O)c1ccc2nc(OCCN3CCCC3)ccc2c1 [chemical probe 1] | – | – | – | – | – | – | – | – | – | – | – | Stability in pH 7.4 phosphate buffer ([3]; 37 °C, pH 7.4 phosphate buffer): no instability
3 | > 1260 | O=C1CCC(N2C(=O)c3cccc(OCCOCCOCCN4CCN(Cc5ccc6cc(C(=O)Nc7cc(NC(=O)c8cccc9c8OCCO9)ccc7Cl)ccc6n5)CC4)c3C2=O)C(=O)N1 (centres unmarked) [PDP 21, N-(2-Chloro-5-(2,3-dihydrobenzo[b][1,4]dioxine-5-carboxamido)phenyl)-2-((4-(2-(2-(2-((2-(2,6-dioxopiperidin-3-yl)-1,3-dioxoisoindolin-4-yl)oxy)ethoxy)ethoxy)ethyl)piperazin-1-yl)methyl)quinoline-6-carboxamide] | – | – | – | 2.9 | 2 (≈ 1.89 µg/mL) | > 1300 | 277 | 590 | 444 | 98 | 420 | Pirin depletion by negative control ([5]; SK-OV-3 cells, 24 h treatment, Western blot, Figure S19): does not deplete pirin protein; also recorded: no pirin depletion; half-life at 100 µM ([3]; pH 7.4, Half-life (aqueous stability), 37 °C, pH 7.4 phosphate buffer): 2.8 h
4 | – | CC(C)C[C@@H](C=O)NC(=O)[C@H](CC(C)C)NC(=O)[C@H](CC(C)C)NC(=O)OCc1ccccc1 [MG132] (Cbz-Leu-Leu-Leu-aldehyde) | – | – | – | – | – | – | – | – | – | – | – | Rescue of pirin degradation by MG132 preincubation (proteasome): rescue

Row | SMILES | Kd (pirin [2]; [10]) [nM] | Kd (pirin [2]; [8]) [nM] | Kd (pirin [2]; [9]) [nM] | Measured Rmax/Theoretical Rmax (pirin [2]) | chromatographic logD [4] | solubility kinetic at 120 min [6] [µM] | Kd (pirin [2]; [11]) [nM] | IC50 (CRBN-DDB1 complex; [12]) [nM] | IC50 (CRBN-DDB1 complex; [13]) [nM] | IC50 (CRBN-DDB1 complex; [14]) [nM] | Ki (CRBN-DDB1 complex) [nM] | IC50 (CRBN-DDB1 complex; [15]) [nM] | other results
5 | Cc1ccc(NC(=O)c2ccc3c(c2)OCCO3)cc1NC(=O)c1ccc2nc(OCCCC(=O)NCCOCCNC(=O)COc3cccc4c3C(=O)N(C3CCC(=O)NC3=O)C4=O)ccc2c1 (centres unmarked) [PDP 3, N-(5-(2,3-Dihydrobenzo[b][1,4]dioxine-6-carboxamido)-2-methylphenyl)-2-(4-((2-(2-(2-((2-(2,6-dioxopiperidin-3-yl)-1,3-dioxoisoindolin-4-yl)oxy)acetamido)ethoxy)ethyl)amino)-4-oxobutoxy)quinoline-6-carboxamide] | 107 | 111 | 108 | 0.44 | 2.2 | 1 (≈ 0.942 µg/mL) | 110 | 496 | 1510 | 811 | 220 | 850 | Effects on SK-OV-3 cells ([5]; >1 μM, >48 h, data not shown): no measurable effects on the cancer cells; IC50 (CRBN-DDB1 complex; column statistics, read-out: CRBN/DDB1 FP pIC50, mean of 3 values (unrounded) (converted)): 847 nM; half-life at 100 µM ([3]; pH 7.4): 7.2 h
